Values quoted from earlier work as cited in patent US20100216719A1, “Soluble Fiber Combinations for Weight Control and Improving Parameters of Cardiovascular Health” (MANNATECH, INCORPORATED, priority 2005, published 2010).

Legend:
[1] = subjects supplemented with 3.8 grams per day for 28 days
[2] = test animals

Substance | reduction in ApoB [1] [%] | reduction in LDL cholesterol [1] [%] | reduction in fasting glucose levels [1] [%] | reduction in plasma cholesterol [1] [%] | reduction in total cholesterol/HDL cholesterol ratio [1] [%] | effect on cholesterol [2] | effect on triglycerides [2]
Konjac glucomannan | 12.9 | 20.7 | 23.2 | 11.1 | 15.6 | – | –
guar gum | – | – | – | – | – | decreased only cholesterol | –
xanthan gum | – | – | – | – | – | significantly reduced | significantly reduced
